In publication PMC9223658, “New Borane-Protected Derivatives of α-Aminophosphonous Acid as Anti-Osteosarcoma Agents: ADME Analysis and Molecular Modeling, In Vitro Studies on Anti-Cancer Activities, and NEP Inhibition as a Possible Mechanism of Anti-Proliferative Activity” (International Journal of Molecular Sciences, 2022):
Read-outs that look alike come from different tables or passages of the source.

Legend:
[1] = tested on: osteosarcoma HOS cells; assay: MTT proliferation assay, 96 h; type: cell-based, human; conditions: proliferation, 10% FBS, read-out: IC50 (µM ± SD) HOS
Description: (§1) One of the features specific totumor cells is the unlimited potential for proliferation. […] To this end, the assay conditions were established suchthat they encourage the proliferation of OS cells, i.e., the cell cultures at low density were incubated with compounds diluted in the growth medium (10% FBS) for an extended time of 96 h. Additionally, cisplatin, i.e., a common cytostatic used in osteosarcoma treatment, was included as a positive control in this study. Moreover, since the new generation of anti-cancer compounds is highly desired to be inert (non-cytotoxic) towards normal cells, the influence of compounds 1–7 on the viability of human normal cells (osteoblasts hFOB 1.19 and colon fibroblasts CCD-18Co) was also determined.To this end, the assay conditions were established such that they restrict the proliferation of OS cells and to establish whether the compounds have cytotoxic potential, i.e., the cell cultures were incubated with compounds diluted in the medium with a reduced concentration of FBS (2%) for a shortened time of 24 h. […] However, this activity varied depending on both the types of the compounds and the osteosarcoma cell lines (Table 4).
(§2) The anti-proliferative activity of compounds 1–7 against the HOS and Saos-2 osteosarcoma cells and the viability of the human normal hFOB 1.19 and CCD-18Co cells were screened by means of the MTT method. This method is commonly used to assess cell viability and proliferation or to determine the cytotoxicity of any compounds. It is a reliable method for this purpose because it is based on measurement of the level reduction in MTT dye to formazan byNAD(P)H-dependent oxidoreductase enzymes of metabolically active cells.
(§3) To assess the anti-proliferative activity of compounds 1–7 against the HOS and Saos-2 osteosarcoma cells, 3.0 × 10^4 cells/mLseeded (low density culture) into 96-well plates (Nunc, Roskilde, Denmark) were incubated with each compound at concentrations of 3.125, 6.25, 12.5, 25, 50, 100 and 200 µM prepared in medium with 10% FBS (growth medium) for 96 h. Additionally, cisplatin (Sigma Aldrich), i.e., a common cytostatic used in osteosarcoma treatment, was included as a positive control in this study. It was tested in the same conditions as compounds 1–7. The negative control was constituted by the untreated cells (0 µM). Next, the MTT assay was carried out as described previously.
(§4) The results of these assays were calculated as a percent of the untreated cells (100%; control). Then, the IC50 (concentration resulting in 50% inhibition of proliferation) and CC50 (concentration resulting in a 50% decrease in viability) values were calculated from a non-linear regression (log(inhibitor) vs. normalized response-variable slope) using GraphPad Prism 5.0 (GraphPAD Software Inc., San Diego, CA, USA). The IC50 and CC50 results were presented as themean ± SD of at least three experiments. In the case of the BrdU assay, the results were presented as a percent of untreated cells (100%; control).

[2] = tested on: osteosarcoma Saos-2 cells; assay: MTT proliferation assay, 96 h; type: cell-based, human; conditions: MTT, 10% FBS, read-out: IC50 (µM ± SD) Saos-2
Description: as §1, §2, §3, §4

[3] = tested on: active caspase 3 in HOS cells; assay: Active caspase 3 assay (flow cytometry); type: cell-based, human; conditions: 3.5 µM (IC50 concentration), 72 h
Description: (§5) The level of active executor caspase 3 and initiator caspase 9 was determined to examine whether compounds 4 and 6 induced apoptosis in the HOS and Saos-2 cells. The influence of compounds 4 and 6 on HOS and Saos-2 were determined with the caspase 3 assay, whereas the influence of compound 6 on the HOS cells was investigated with the caspase 9 assay. In both assays, the osteosarcoma cells (3.0 × 10^5 cells/mL) were seeded in 6-well plates. The cells were treated with compounds 4 and 6 at concentrations of 12.5, 25, 50 µM and 20, 40, 80 µM as well as 15, 30, 60 µM and 21.25, 42.5, 85 µM for 72 h, respectively. The solutions of the compounds were prepared in a medium with 2% FBS. […] Next, floating and adherent cells were harvested and subjected to further steps of the staining procedures according to the manufacturer’s instruction. The level of active caspase 3 and caspase 9 was determined using the PE Active Caspase-3 Apoptosis Kit (BD Pharmingen^TM) and the CaspaTag^TM Caspase-9 in Situ Assay Kit (Millipore, Darmstadt, Germany), respectively. The number of stained cells (active caspase 3- or 9-positive cells) was measured using FACS Calibur, and the obtained data were analyzed using Cell Quest Pro Version 6.0. for the Macintosh operating system (BD Pharmingen™). The presented results were calculated as a percent of cells with either active caspase 3 or 9 among all the analyzed cells.

[4] = tested on: active caspase 3 in Saos-2 cells; assay: Active caspase 3 assay (flow cytometry); type: cell-based, human; conditions: Saos-2, 12.5 µM (IC50 concentration), 72 h
Description: as §5

[5] = tested on: active caspase 9 in HOS cells; assay: Active caspase 9 assay (flow cytometry); type: cell-based, human; conditions: 3.5 µM (IC50 concentration), 72 h
Description: as §5

[6] = MTT viability assay, 24 h; type: cell-based; conditions: human, 2% FBS
Description: as §1, §2
To assess the viability of human normal cells, confluent hFOB 1.19 (3 × 10^5 cells/mL) and CCD-18Co (1 × 10^5 cells/mL) cells seeded in 96-well plates (Nunc) were incubated with compounds 1–7 at concentrations of 3.125, 6.25, 12.5, 25, 50, 100 and 200 µM prepared in medium with 2% FBS (maintaining medium) for 24 h. The control was constituted by the untreated cells (0 µM). Next, the MTT assay was carried out as described previously.
as §4

[7] = biological target: T1, NEP (neprilysin) (Homo sapiens, UniProt P08473); assay: Neutral endopeptidase activity assay (fluorometric); type: biochemical
T1 construct: purchased BioVision, Waltham, MA, USA
T1 sequence (P08473 whole entry): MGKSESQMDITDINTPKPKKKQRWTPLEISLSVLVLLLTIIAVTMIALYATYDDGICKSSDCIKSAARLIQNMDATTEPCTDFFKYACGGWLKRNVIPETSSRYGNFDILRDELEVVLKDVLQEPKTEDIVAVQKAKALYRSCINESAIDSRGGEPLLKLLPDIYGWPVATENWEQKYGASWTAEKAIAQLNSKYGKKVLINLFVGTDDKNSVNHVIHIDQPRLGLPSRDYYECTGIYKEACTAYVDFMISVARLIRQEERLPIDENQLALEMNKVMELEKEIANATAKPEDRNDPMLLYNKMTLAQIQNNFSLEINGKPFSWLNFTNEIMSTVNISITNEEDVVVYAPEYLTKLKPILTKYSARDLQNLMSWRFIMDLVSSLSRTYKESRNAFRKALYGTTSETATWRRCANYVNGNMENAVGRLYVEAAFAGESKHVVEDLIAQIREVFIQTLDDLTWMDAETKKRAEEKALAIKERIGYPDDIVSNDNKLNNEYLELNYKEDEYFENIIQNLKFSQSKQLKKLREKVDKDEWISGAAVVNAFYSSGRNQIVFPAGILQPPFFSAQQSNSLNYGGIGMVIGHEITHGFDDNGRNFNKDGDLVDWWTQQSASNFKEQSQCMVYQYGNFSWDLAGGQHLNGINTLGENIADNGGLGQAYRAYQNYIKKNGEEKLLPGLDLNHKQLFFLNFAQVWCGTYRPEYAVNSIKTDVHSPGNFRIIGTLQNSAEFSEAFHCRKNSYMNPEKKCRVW
Description: The NEP activity in the presence of compounds 4 and 6 was determined using the Neprilysin Activity Assay Kit (BioVision, Waltham, MA, USA) according to the manufacturer’s instructions. The measurement is based on the ability of active neprilysin to cleave a synthetic substrate (Abz-based peptide) to release a fluorophore, which can be easily quantified using a fluorescence microplate reader. Briefly, pure neprilysin (5µLof stock solution) was incubated with solutions of the tested compounds (at least 4 concentrations in the range of 0.01–50 µM) for 10 min at 37 °C. The reaction was started by adding the substrate solution, and the final sample volume was 100µL. Fluorescence was measured (Ex/Em = 330/430nm) in the kinetic mode at 37 °C for 1–2 h. The same procedure was used to measure the control and background sample. Thiorphan was used as a reference NEP inhibitor. NEP activity was determined with the prepared Abz standard curve and expressed in µU/mL. The experiments were performed at least in triplicates, and the graphs represent mean ±SD values.

[8] = tested on: HOS cells; assay: BrdU proliferation assay, 96 h; type: cell-based, human; conditions: for decrease in proliferation: 96 h
Description: (§6) In the study on the implication of NEP in the anti-proliferative activity of compound 4, cell proliferation was determined with the BrdU assay. Cell cultures were prepared as described above. Depending on the requirements, the HOS and Saos-2 cells were treated with non-cytotoxic concentrations of the NEP inhibitor—thiorphan (1, 5, 20, 100, 200, 500 µM) or pre-treated with thiorphan (100 µM) for 1 h. In this scheme, compound 4 (HOS—25 µM; Saos-2—60 µM) was added alone or in combination with the NEP inhibitor into the cell cultures. Finally, cell proliferation was evaluated with the BrdU Cell Proliferation Assay according to the manufacturer’s instructions (Millipore, Darmstadt, Germany) after a 96-h incubation.
as §4

[9] = tested on: Saos-2 cells; assay: BrdU proliferation assay, 96 h; type: cell-based, human; conditions: for decrease in proliferation: 96 h
Description: as §6, §4

[10] = Homo sapiens, SAOS-2, proliferation
[11] = normal osteoblasts hFOB 1.19 cells, read-out: CC50 (µM ± SD) hFOB 1.19

SMILES | IC50 ([1]; Homo sapiens, HOS) | IC50 [2, 10] | CC50 at 24 h [6, 11] | also measured
[NH2][Pt]([NH2])([Cl])[Cl] [CDDP, cisplatin, reference compound] |  |  |  | IC50 [1]: 3.5 ± 0.92 µM; IC50 ([2]; proliferation): 12.8 ± 3.7 µM; increase in active caspase 3 vs untreated cells [3]: approx. 13%; increase in active caspase 3 vs untreated cells [4]: approx. 9%; increase in active caspase 9 vs untreated cells [5]: approx. 10%
[BH3-][P+](Cc1ccccc1)(OC(C)C)OC(C)C [Compound 1, benzylphosphonous acid-borane diisopropyl ester] | 164 ± 79.5 µM | 91 ± 19.4 µM | 161 ± 22.9 µM | 
[BH3-][P+](OC(C)C)(OC(C)C)C(C)(C)O [Compound 2, 1-hydroxy-1-methylethylphosphonous acid-borane diisopropyl ester] | 344 ± 142 µM | 83.4 ± 18.4 µM | 182 ± 28.1 µM | 
[BH3-][P+](OC(C)C)(N(CC)CC)C(C)(C)O (stereo not drawn) [Compound 3, 1-hydroxy-1-methylethylphosphonous acid-borane isopropyl ester N,N-diethylamide] | 226 ± 3.56 µM | 79.6 ± 13.6 µM | 224 ± 95.3 µM | 
[BH3-][P+](OC(C)C)(OC(C)C)C(Nc1ccc(O)cc1)c1ccccc1 (stereo not drawn) [Compound 5] | 79.5 ± 22.9 µM | 96 ± 3.3 µM | 43.9 ± 3.5 µM | CC50 at 24 h ([6]; normal colon fibroblasts CCD-18Co cells, read-out: CC50 (µM ± SD) CCD-18Co): 62.5 ± 36.2 µM
[BH3-][P+](OC(C)C)(OC(C)C)C(Nc1ccc(Br)cc1)c1ccc(OC)cc1 (stereo not drawn) [Compound 7, [1-(N-p-bromophenylamino)]-1-(p-anisyl)methylphosphonous acid-borane diisopropyl ester] | 51.2 ± 18.6 µM | 109 ± 15.8 µM | 214 ± 39.5 µM | 
O=C(O)CNC(=O)C(CS)Cc1ccccc1 (stereo not drawn) [thiorphan, N-[2-(mercaptomethyl)-1-oxo-3-phenylpropyl]glycine] |  |  |  | decrease in NEP activity ([7]; 0.0005 µM): approx. 30%; decrease in NEP activity ([7]; 0.005 µM): approx. 50%; decrease in NEP activity ([7]; 0.01 µM): ~60%; effect on proliferation ([8]; 100 µM): did not affect cell proliferation; decrease in proliferation ([8]; 200 µM): approx. 30%; decrease in proliferation ([8]; 500 µM): ~40%; effect on proliferation ([9]; Saos-2, 100 µM): did not affect cell proliferation; decrease in proliferation ([9]; Saos-2, 200 µM): 35%; decrease in proliferation ([9]; Saos-2, 500 µM): 60%
